Data from patent publication US12491252B2, “Substituted 3-amino-5-phenylbenzamide compounds as covalent inhibitors of enhancer zeste homolog 2 (EZH2) and proteolysis-targeting chimeric derivatives thereof (PROTACs) that induce degradation of EZH2” (Northwestern University, priority 2021, dated 2025).
Where two headings read alike, the source gives them in different places.

How the values were obtained:
[1] = biological target: T1, EZH2 (Homo sapiens, UniProt Q15910); test: Western blot of EZH2 protein in C4-2B cells; conditions: for Degradation of EZH2: FIG. 14, 10 μM for 6 days
T1 sequence (Q15910 whole entry): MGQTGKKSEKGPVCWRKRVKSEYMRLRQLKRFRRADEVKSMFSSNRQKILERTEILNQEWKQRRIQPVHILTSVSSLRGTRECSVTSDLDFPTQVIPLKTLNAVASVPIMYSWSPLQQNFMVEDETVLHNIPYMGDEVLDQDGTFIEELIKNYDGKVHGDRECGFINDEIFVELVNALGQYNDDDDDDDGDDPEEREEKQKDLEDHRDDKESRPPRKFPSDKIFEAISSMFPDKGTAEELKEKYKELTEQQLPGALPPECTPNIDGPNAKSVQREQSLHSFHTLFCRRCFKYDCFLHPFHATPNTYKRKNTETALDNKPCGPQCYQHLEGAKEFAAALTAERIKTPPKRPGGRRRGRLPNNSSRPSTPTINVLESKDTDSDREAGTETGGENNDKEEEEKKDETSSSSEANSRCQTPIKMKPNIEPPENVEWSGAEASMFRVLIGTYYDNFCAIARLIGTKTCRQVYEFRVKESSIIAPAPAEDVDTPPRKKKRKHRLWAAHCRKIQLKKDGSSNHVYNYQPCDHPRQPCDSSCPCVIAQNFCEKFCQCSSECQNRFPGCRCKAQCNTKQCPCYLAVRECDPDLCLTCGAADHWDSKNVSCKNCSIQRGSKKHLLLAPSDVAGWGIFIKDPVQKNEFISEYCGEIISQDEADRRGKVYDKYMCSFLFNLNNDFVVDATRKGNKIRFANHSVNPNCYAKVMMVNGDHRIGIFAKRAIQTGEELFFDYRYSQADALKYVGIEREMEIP
T1 sequence (Q15022 whole entry partner): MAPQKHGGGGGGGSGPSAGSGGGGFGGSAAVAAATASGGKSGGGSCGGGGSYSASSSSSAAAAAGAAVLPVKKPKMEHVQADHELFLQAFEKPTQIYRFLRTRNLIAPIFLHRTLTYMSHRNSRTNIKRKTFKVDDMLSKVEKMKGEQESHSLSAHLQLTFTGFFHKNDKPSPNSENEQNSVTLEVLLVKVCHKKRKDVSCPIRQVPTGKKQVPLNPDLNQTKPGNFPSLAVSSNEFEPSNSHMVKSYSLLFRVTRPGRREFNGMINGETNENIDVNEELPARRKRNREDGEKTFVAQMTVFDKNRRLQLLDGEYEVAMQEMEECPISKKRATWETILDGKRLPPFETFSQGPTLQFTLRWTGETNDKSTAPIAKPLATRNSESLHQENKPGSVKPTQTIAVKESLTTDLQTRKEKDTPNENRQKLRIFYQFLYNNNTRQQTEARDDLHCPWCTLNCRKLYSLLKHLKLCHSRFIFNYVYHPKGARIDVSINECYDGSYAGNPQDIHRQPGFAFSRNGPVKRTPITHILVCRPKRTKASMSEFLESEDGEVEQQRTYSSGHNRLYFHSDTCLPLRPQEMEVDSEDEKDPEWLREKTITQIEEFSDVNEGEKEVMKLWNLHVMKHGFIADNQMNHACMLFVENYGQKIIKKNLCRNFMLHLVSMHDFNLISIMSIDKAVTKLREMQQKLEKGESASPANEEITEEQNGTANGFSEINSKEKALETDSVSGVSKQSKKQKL
T1 sequence (O75530 whole entry partner): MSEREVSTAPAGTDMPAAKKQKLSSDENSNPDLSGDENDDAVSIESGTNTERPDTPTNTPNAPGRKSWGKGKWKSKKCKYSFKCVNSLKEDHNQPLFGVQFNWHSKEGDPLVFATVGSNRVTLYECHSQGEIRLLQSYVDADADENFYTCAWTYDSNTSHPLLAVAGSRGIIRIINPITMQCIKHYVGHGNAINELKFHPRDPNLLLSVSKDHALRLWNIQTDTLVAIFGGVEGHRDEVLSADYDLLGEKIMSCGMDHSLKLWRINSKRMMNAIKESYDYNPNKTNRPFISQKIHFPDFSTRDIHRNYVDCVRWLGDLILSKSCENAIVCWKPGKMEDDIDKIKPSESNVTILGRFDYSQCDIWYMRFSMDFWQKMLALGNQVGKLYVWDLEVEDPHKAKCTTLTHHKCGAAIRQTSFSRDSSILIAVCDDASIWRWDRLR

[2] = test system: H3K27me3; test: Western blot of H3K27me3 levels in C4-2B cells; type: cell-based; conditions: FIG. 14, 10 μM for 6 days
[3] = test system: lymphoma cell lines; test: WST-1 cell proliferation in multiple lymphoma cell lines; type: cell-based; conditions: WST-1 Kit
Method: (§1) Cell proliferation was measured using WST-1 Kit (Clontech) according to manufacturer's protocol.

[4] = test system: C4-2B cells; test: Live imaging cell proliferation of C4-2B cells; type: cell-based; conditions: FIG. 20A, monitored over 168 hours
Source text: FIG. 20A-20B. (FIG. 20A) Live imaging cell proliferation of C4-2B cells. […] DMSO is set as the negative control. […] (FIG. 20B) Colony assays using C4-2B cells after treatment with the indicated compounds for 7 days.

[5] = test system: LNCaP cells; test: WST cell proliferation/viability assay in LNCaP cells; type: cell-based; conditions: for Inhibition of proliferation (WST): FIG. 19A, 6 days
Method: FIG. 19A-19B. (FIG. 19A) WST cell proliferation assay of indicated compounds in LNCaP cells. […] (FIG. 19B) Effects of indicated compounds on EZH2, AR, and FOXA1 by western blot at 1 μM in LNCaP cells.
as §1

[6] = test system: LNCaP cells; test: Live imaging cell proliferation of LNCaP cells; type: cell-based; conditions: FIG. 17A, monitored over 168 hours
Source text: FIG. 17A-17B. (FIG. 17A) Live imaging cell proliferation of LNCaP cells. […] DMSO is set as the negative control. […] (FIG. 17B) Colony assays using LnCaP cells after treatment with the indicated compounds for 7 days.

[7] = test system: 22Rv1 cells; test: Cell titer glo cell viability assay in 22Rv1 cells; type: cell-based
[8] = test system: C4-2B cells; test: WST cell proliferation assay in C4-2B cells; type: cell-based; conditions: FIG. 22, 6 days
Method: FIG. 22A-22B. WST cell proliferation assay of indicated compounds in C4-2B cells. Cells were treated for 6 days. […] (FIG. 19B) Effects of indicated compounds on EZH2, AR, and FOXA1 by western blot at 1 μM in C4-2B cells.
as §1

[9] = test system: SUZ12; test: Western blot of SUZ12 in SU-DHL6 cells; type: cell-based; conditions: FIG. 33, 48 hours
Method: (§2) FIG. 33. […] Cell were treated for 48 hours with the indicated concentrations of compounds.

[10] = test system: LNCaP cells; test: Imaging of LnCaP cells (cell density); type: cell-based; conditions: FIG. 18, 12 days' treatment
Source text: FIG. 18. Imaging of LnCaP cells after 12 days' treatment with the indicated compounds.

[11] = test system: 22Rv1 cells; test: WST cell viability assay in 22Rv1 cells; type: cell-based
Method: as §1

[12] = test system: LNCaP cells; test: Colony assay using LnCaP cells; type: cell-based; conditions: FIG. 17B, treatment for 7 days
Method: (§3) FIG. 17A-17B. (FIG. 17A) Live imaging cell proliferation of LNCaP cells. Cells were treated with indicated compounds and monitored over 168 hours for proliferation by phase object confluence. DMSO is set as the negative control. […] (FIG. 17B) Colony assays using LnCaP cells after treatment with the indicated compounds for 7 days.

[13] = biological target: T1, EZH2; test: Western blot of EZH2 protein in DU-145 cells; conditions: FIG. 27, 6 days treatment
Source text: (Upper right western blot) Western blot analysis of EZH2 protein in DU-145 cells after 6 days treatment.

[14] = test system: SUZ12; test: Western blot of SUZ12 in C4-2B cells; type: cell-based; conditions: FIG. 14, 10 μM for 6 days
[15] = test system: EZH2; test: Western blot of EZH2 in SU-DHL4 cells; type: cell-based; conditions: FIG. 33, 48 hours
[16] = biological target: T1, EZH2; test: Western blot of EZH2 protein in PC3 cells; conditions: FIG. 26, 6 days treatment
Source text: (Upper right western blot) Western blot analysis of EZH2 protein in PC3 cells after 6 days treatment.

[17] = biological target: T1, EZH2; test: Ubiquitination of EZH2 in C4-2B cells with MG132; type: cell-based; conditions: FIG. 15B, plus proteasome inhibitor MG132
[18] = test system: EZH2; test: Western blot of EZH2 in SU-DHL6 cells; type: cell-based; conditions: FIG. 33, 48 hours
[19] = test system: EED; test: Western blot of EED in SU-DHL4 cells; type: cell-based; conditions: FIG. 33, 48 hours
Method: as §2

[20] = test system: SU-DHL6 cells; test: WST cell viability assay in SU-DHL6 cells; type: cell-based
Method: as §1

[21] = biological target: T1, EZH2; test: Western blot of EZH2 with esiRNA knockdown of VHL or siRNA control; type: cell-based; conditions: FIG. 16, duplicate
Method: FIG. 16. Cells were treated with indicated compounds with either esiRNA knockdown of VHL or siRNA control (no EZH2 knockdown) and blotted for EZH2 and VHL. […] Experiment was run in duplicate with both replicates shown on the left and right sides.

[22] = test system: SU-DHL4 cells; test: WST cell viability assay in SU-DHL4 cells; type: cell-based; conditions: for IC50: Homo sapiens, variable slope, read-out: IC50 (best-fit value)
Method: as §1

[23] = Pharmacokinetics in mice, IP cassette dosing, plasma LC/MS/MS; type: in vivo, C57Bl/6 mouse; conditions: mouse, C57Bl/6 mice, 4 mg/kg IP, cassette format
Method: FIG. 35. Pharmacokinetics of indicated compounds. Compounds were administered to C57Bl/6 mouse mice at 4 mg/kg using intraperitoneal (IP) injection in cassette format. Plasma was collected at the indicated time points and analyzed by LC/MS/MS using standard methods.
For assessing pharmacokinetics, compounds were administered to C57Bl/6 mouse mice at 4 mg/kg using intraperitoneal (IP) injection in cassette format. Plasma was collected at the indicated time points and analyzed by LC/MS/MS using standard methods.

[24] = test system: C4-2B cells; test: Colony assay using C4-2B cells; type: cell-based; conditions: FIG. 20B, treatment for 7 days
Method: as §3, with “20A-20B.” for “17A-17B.”, “20A)” for “17A)”, “C4-2B” for “LNCaP”, “20B)” for “17B)”, “C4-2B” for “LnCaP”

[25] = test system: EED; test: Western blot of EED in SU-DHL6 cells; type: cell-based; conditions: FIG. 33, 48 hours
Method: as §2

[26] = test system: C4-2B cells; test: Imaging of C4-2B cells (cell density); type: cell-based; conditions: FIG. 21, 12 days' treatment
Source text: FIG. 21. Imaging of C4-2B cells after 12 days' treatment with the indicated compounds.

[27] = test system: prostate cancer cell lines; test: WST-1 cell proliferation in multiple prostate cancer cell lines; type: cell-based; conditions: WST-1 Kit
Method: as §1

[28] = test system: SUZ12; test: Western blot of SUZ12 in SU-DHL4 cells; type: cell-based; conditions: FIG. 33, 48 hours
Method: as §2

[29] = Table 6, WST1 with higher dose on SU-DHL4
[30] = Table 8, WST1 within 1 μM on SU-DHL4
[31] = Table 9, WST1 within 1 μM on SU-DHL4 (as titled)
[32] = Table 7, WST1 with higher dose on SU-DHL6

CCN(c1cc(-c2ccc(CN3CCN(C(=O)CCCCCCCCCC(=O)N[C@H](C(=O)N4C[C@H](O)C[C@H]4C(=O)NCc4ccc(-c5scnc5C)cc4)C(C)(C)C)CC3)cc2)cc(C(=O)NCc2c(C)cc(C)[nH]c2=O)c1C)C1CCOCC1 [Compound 6272]
Degrading EZH2 protein at nM doses, versus 2304 ([1]; FIG. 10, 24 hours): more effective than 2304
Degradation of EZH2 [1]: strong degradation of EZH2
H3K27me3 levels [2]: reduced H3K27me3 levels
Inhibition of cell proliferation versus EPZ-6438 [3]: more potent and effective at inhibiting cell proliferation than the catalytic EZH2 inhibitor EPZ-6438
Cell proliferation by phase object confluence [4]: decrease C4-2B proliferation
Inhibition of proliferation (WST) ([5]; LNCaP): similarly potent effects on inhibiting the proliferation
Anti-proliferative effect (WST cell viability) ([5]; FIG. 23, LNCaP, 5 days' treatment, concentration range): greater anti-proliferative effect than EPZ-6438
IC50 ([5]; Homo sapiens, Table 3, WST1 test cell viability on LNCaP, [Inhibitor] vs. normalized response, read-out: IC50 (best-fit value)): 758 nM
Cell proliferation by phase object confluence [6]: greatest ability to decrease LnCaP proliferation
Anti-proliferative effect (Cell titer glo cell viability) ([7]; FIG. 25, 22Rv1, 5 days' treatment, concentration range): greater anti-proliferative effect than EPZ-6438
IC50 ([7]; Homo sapiens, Table 5, Cell titer glo test cell viability with different doses on 22Rv1, read-out: IC50 (best-fit value)): 692 nM
Inhibition of proliferation (WST) [8]: similarly potent effects on inhibiting the proliferation
Degradation of SUZ12 [9]: significant degradation
Cell density by imaging [10]: significant reduction in the cell density
Anti-proliferative effect (WST cell viability) ([11]; FIG. 24, 22Rv1, 5 days' treatment, concentration range): greater anti-proliferative effect than EPZ-6438
IC50 ([11]; Homo sapiens, Table 4, WST1 cell viability with different doses on 22Rv1, read-out: IC50 (best-fit value)): 1340 nM
Colonies [12]: significant reduction in the colonies
EZH2 protein (western blot) [13]: significant reduction in EZH2
Reduction of PRC2 component SUZ12 [14]: reduction of PRC2 component SUZ12
Degradation of EZH2 [15]: significant degradation
EZH2 protein (western blot) [16]: significant reduction in EZH2
Degree of ubiquitination of EZH2 [17]: much greater degree of ubiquitination of EZH2 than the inactive compound 6286
Degradation of EZH2 [18]: significant degradation
Degradation of EED [19]: significant degradation
Anti-proliferative effect (WST cell viability) ([20]; FIG. 30, SU-DHL6, 4 days' treatment): greater anti-proliferative effect than EPZ-6438
Anti-proliferative effect (WST cell viability) at 1 μM ([20]; FIG. 32, SU-DHL6, 4 days' treatment, 1 μM): greater anti-proliferative effect than EPZ-6438
IC50 ([20]; Homo sapiens, SU-DHL-6, Table 7, WST1 test cell viability with higher dose on SU-DHL6, variable slope, read-out: IC50 (best-fit value)): 892 nM
Ability to degrade EZH2 with esiRNA knockdown of VHL ([21]; VHL knockdown): inhibition of the ability of active compounds 6272 to degrade EZH2
Ability to degrade EZH2 with siRNA control (VHL present) ([21]; siRNA control lane): able to strongly degrade EZH2
Anti-proliferative effect (WST cell viability) ([22]; FIG. 29, SU-DHL4, 4 days' treatment): greater anti-proliferative effect than EPZ-6438
IC50 ([22]; SU-DHL-4, Table 8, WST1 test cell viability within 1 μM on SU-DHL4): 2500 nM
IC50 ([22]; SU-DHL-4, Table 9, WST1 test cell viability within 1 μM on SU-DHL4 (as titled)): 337 nM
HillSlope (best-fit value) [22, 29]: −0.093
HillSlope (best-fit value) [22, 30]: −0.2858
HillSlope (best-fit value) [22, 31]: −1.235
logIC50 (best-fit value) [22, 31]: −0.4722
half-life [23]: 210 to 360 min
Colonies [24]: significant reduction in the colonies
Degradation of EED [25]: significant degradation
Cell density by imaging [26]: significant reduction in the cell density
Inhibition of cell proliferation versus EPZ-6438 [27]: more potent and effective at inhibiting cell proliferation than the catalytic EZH2 inhibitor EPZ-6438
Degradation of SUZ12 [28]: significant degradation

CCN(c1cc(-c2ccc(CN3CCOCC3)cc2)cc(C(=O)NCc2c(C)cc(C)[nH]c2=O)c1C)C1CCOCC1 [EPZ-6438, reference compound]
Degradation of SUZ12 [9]: little or no effect
Colonies [12]: reduction in colonies versus DMSO negative control
Degradation of EED [19]: little or no effect
HillSlope (best-fit value) [20, 32]: −0.03015
logIC50 (best-fit value) [20, 32]: Unstable
HillSlope (best-fit value) [22, 29]: 0.005835
HillSlope (best-fit value) [22, 30]: −0.1692
HillSlope (best-fit value) [22, 31]: −0.4432
Colonies [24]: reduction in colonies versus DMSO negative control
Degradation of EED [25]: little or no effect
Degradation of SUZ12 [28]: little or no effect

CCN(c1cc(-c2ccc(CN3CCN(CCCCCCCCCCCC(=O)N[C@H](C(=O)N4C[C@H](O)C[C@H]4C(=O)NCc4ccc(-c5scnc5C)cc4)C(C)(C)C)CC3)cc2)cc(C(=O)NCc2c(C)cc(C)[nH]c2=O)c1C)C1CCOCC1 [Compound 6287]
Degradation of EZH2 [1]: strong degradation of EZH2
H3K27me3 levels [2]: reduced H3K27me3 levels
Cell proliferation by phase object confluence [4]: decrease C4-2B proliferation
Inhibition of proliferation (WST) ([5]; LNCaP): similarly potent effects on inhibiting the proliferation
Cell proliferation by phase object confluence [6]: greatest ability to decrease LnCaP proliferation
Inhibition of proliferation (WST) [8]: similarly potent effects on inhibiting the proliferation
Cell density by imaging [10]: significant reduction in the cell density
Colonies [12]: significant reduction in the colonies
EZH2 protein (western blot) [13]: significant reduction in EZH2
Reduction of PRC2 component SUZ12 [14]: reduction of PRC2 component SUZ12
EZH2 protein (western blot) [16]: significant reduction in EZH2
Cmax [23]: 487 nM
half-life [23]: 390 min
Colonies [24]: significant reduction in the colonies
Cell density by imaging [26]: significant reduction in the cell density
